The structures appear in SMILES notation. Like-named read-outs stand apart in the source and are kept apart here.

A short description of series [1]: Comparative dissolution test in distillate water. The format is physicochemical. The conditions noted are these: UV-VIS. As to the method:
The suspension was stirred for 1, 5, 10, 20 and 60 minutes and then it was filtered by 0.2 μm disposable syringe filter. Telmisartan concentration was determined by UV-VIS spectrophotometer (Agilent 8453).

Series [2] is described as follows: Visual observation of wettability by stereomicroscope. Particulars: one drop of distillate water on 0.1 mg powder. The series is classed as physicochemical.
For series [3] the following is noted: cited from earlier work.
For series [4] the following is noted: cited from earlier work. The source holds these as a separate data set.
Another series in a line: in vivo. The conditions noted are these: male, Wistar, rat, po, 30 mg/kg.
Series [5] deals with plasma proteins, mainly albumin and α1—acid glycoprotein. The conditions noted are these: cited from earlier work.

Procedure for in vivo: Both test substances were administered via gastric tube in a dosing volume of 5 ml/kg. The vehicle of the test items was sterile 0.9% NaCl solution and the suspension was kept homogenous by continuous stirring during treatment in order to minimize the error resulting from the sedimentation.
Male Wistar rats (purchased from Laboratory Animal Center, University of Szeged) were maintained on a standard pellet rodent diet (Bioplan Ltd, Isaszeg, Hungary) under temperature and light-controlled conditions with tap water available ad libitum. The acclimatization period was at least 4 days. […] All animals were fasting for 16 hours before oral treatment. […] Water was available immediately after treatment for all animals. […] Serum samples were prepared by centrifugation (7000 rpm, 10 min, 4° C.) of the clotted blood within 60 minutes and were stored at −20° C. till analysis.
An aliquot of 200 μl serum was combined with 20 μl of internal standard working solution and 1.2 ml acetonitrile for protein precipitation. The mixture was vortexed for 1 min and centrifuged at 12000 rpm for 10 min at 4° C. The supernatants were evaporated to dryness under a stream of nitrogen at 40° C. and reconstituted with 200 μl of water—methanol (50:50 v/v) and 20 μl was injected into the HPLC system.
Unpaired t-test was used to statistically compare the serum concentrations belonging to the same time points. […]

On to `CCCc1nc2c(C)cc(-c3nc4ccccc4n3C)cc2n1Cc1ccc(-c2ccccc2C(=O)O)cc1` [Telmisartan, 4′-[(1,4′-dimethyl-2′-propyl [2,6′-bi-1H-benzimidazol]-1′-yl)methyl]-[1,1′-biphenyl]-2-carboxylic acid], for which the “dissolved Telmisartan content” value in series [1] is listed as “cannot be detected”. The wettability entry in series [2] is on record as “stayed in their aggregated state”. Also, the results for the “reduction in AUC by food” value in series [3] (40 mg tablet) and in series [3] (160 mg dose) were “about 6%” and “about 20%”, respectively. The values for the absolute bioavailability in series [3] (40 mg) and in series [3] (160 mg) were 42% and 58%, respectively. Further, the “glucuronide share of the measured radioactivity in plasma” value in series [3] (after a single dose) is on record as “approximately 11%”. Also, in series [3] (in vivo), the “involvement of cytochrome P450 isoenzymes in metabolism” value is listed as “not involved”. The “terminal elimination half life” value in series [3] (in vivo) is reported as “approximately 24 hours”. Further, the total plasma clearance in series [3] (in vivo) is more than 800 mL/min. Also, the volume of distribution entry in series [3] (in vivo) is on record as “approximately 500 liters”. Moreover, the “amount found in urine, % of total radioactivity” value is given as 0.91% in series [3] (intravenous 14C-labeled Telmisartan) and 0.49% in series [3] (oral 14C-labeled Telmisartan). The “administered dose eliminated unchanged in feces via biliary excretion” value in series [3] (intravenous or oral 14C-labeled Telmisartan) is listed as more than 97%. Further, in series [3] (once daily dosing), the “plasma concentrations with once daily dosing, % of peak plasma concentrations” value is on record as 10-25%. Besides, the “accumulation index in plasma” value in series [3] (repeated once daily dosing) was 1.5 to 2.0. For the same compound, the solubility result is recorded as “insoluble” in series [4] (hydrochloric acid); “sparingly soluble” in series [4] (strong acid); “soluble” in series [4] (strong base); “practically insoluble” in series [4] (water and pH range of 3 to 9). The same compound showed an AUC in the series “in vivo” of 15700 ng·h/mL. Besides, the plasma protein binding in series [5] is recorded as more than 99.5%.

The values above are taken from patent publication US20120135053A1, “NANOPARTICULATE TELMISARTAN COMPOSITIONS AND PROCESS FOR THE PREPARATION THEREOF” (priority 2009, published 2012).
